This passage reports IC50 results from patent US11286268B1, “EIF4E-inhibiting compounds and methods” (EFFECTOR THERAPEUTICS, INC., priority 2019, dated 2022).

The target in this experiment is recombinant eIF4E (Homo sapiens (Human), UniProt P06730). Put plainly: Fluorescence polarization competition assay for eIF4E binding potency. Put shortly: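 IC50 values reflect 50% displacement of 20 nM EDA-m7GDP-ATTO-550 from 75 nM eIF4E, measured by fluorescence polarization after 30 min at room temperature. Buffer: 20 mM Tris pH 7.5, 100 mM NaCl, 1 mM DTT, 0.02% Tween-20; 1% DMSO.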
(In general: Polarisation of emitted light reports the rotation of a fluorescent probe.)

Where [1] appears, read: fluorescence polarization competition, 75 nM recombinant eIF4E, 20 nM EDA-m7GDP-ATTO-550, IC50 class, read-out: elF4E FP.
Where [2] appears, read: inhibition of eIF4E/EDA-m7GDP-ATTO-550 binding by 50%, Table 4B calculated values, read-out: IC50.
The mark [3] stands for this setting: inhibition of eIF4E/EDA-m7GDP-ATTO-550 binding, calculated IC50 values, Table 4B, read-out: IC50.

Structures are written as SMILES. Read-outs that look alike come from different tables or passages of the source.

Chain of recombinant eIF4E (P06730 whole entry): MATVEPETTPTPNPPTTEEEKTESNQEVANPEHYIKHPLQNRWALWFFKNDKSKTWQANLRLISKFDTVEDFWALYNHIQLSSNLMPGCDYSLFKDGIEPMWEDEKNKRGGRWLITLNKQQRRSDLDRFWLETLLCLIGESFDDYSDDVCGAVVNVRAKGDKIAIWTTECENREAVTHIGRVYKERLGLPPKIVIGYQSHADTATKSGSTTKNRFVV

For `Cc1nc2cc(C(F)(F)F)cc(C#N)c2c(=O)n1CCOc1ccc(Cl)cc1-c1ccnc2c(O)csc12` [compound 663], the IC50 is, setting by setting: under setting [1], 50 to 1000 nM; under setting [2], 332 nM.

As to `Cc1nc2cnc(N(C)[C@@H]3[C@@H]4CN(CC(F)F)C[C@@H]43)c(C#N)c2c(=O)n1CC#Cc1ccc(Cl)cc1-c1ccnc2c(C(=O)O)csc12` [compound 1407], under setting [3], the IC50 was 24.7 nM.

As for `Cc1nc2cnc(N3CCN(CC(C)(C)C(F)(F)F)CC3)c(C#N)c2c(=O)n1CCOc1ccc(Cl)cc1-c1ccnc2c(C(=O)O)csc12` [compound 1472], under setting [3], the IC50 was 28.9 nM.

Take `N#Cc1cc2c(=O)n(CCOc3ccc(Cl)cc3-c3ccc(OC(F)F)c(C(=O)O)c3)cnc2cn1` [compound 111]: the IC50 under setting [1] fell in the range of 50 to 1000 nM and the IC50 under setting [2] was 434 nM.

`Cc1nc2cnc(N3CC4(CC4)N(C)C4(CC4)C3)c(C#N)c2c(=O)n1CCOc1ccc(Cl)cc1-c1ccnc2c(C(=O)O)csc12` [compound 1363]: the IC50 under setting [3] was 42.9 nM.

With `Cc1nc2cc(C(F)(F)F)c(CN(C)C)c(C#N)c2c(=O)n1CCOc1cc(F)c(Cl)cc1-c1ccnc2c(C(=O)O)csc12` [compound 503], the IC50 is less than 50 nM under setting [1] and 8.67 nM under setting [2].

With `Cc1cc(-c2cc(Cl)ccc2OCCn2c(C)nc3cc(C(F)(F)F)c(CN4CCN(CC(F)F)CC4)c(C#N)c3c2=O)c2scc(C(=O)O)c2n1` [compound 739], the IC50 is less than 50 nM under setting [1] and 30.8 nM under setting [2].

Consider `Cc1cc(-c2cc(Cl)ccc2OCCn2c(C)nc3cc(C(F)(F)F)c(CN(C)C)c(C#N)c3c2=O)c2scc(C(=O)NS(C)(=O)=O)c2n1` [compound 568], for which the IC50 under setting [1] was less than 50 nM and the IC50 under setting [2] was 14.1 nM.

Turning to `N#Cc1cc(C(F)(F)F)cc2nc(Cl)n(CCOc3ccc(Cl)cc3-c3cccc(C(=O)O)c3)c(=O)c12` [compound 187], the IC50 was less than 50 nM under setting [1] and 48.3 nM under setting [2].

In the case of `Cc1cc(-c2cc(Cl)ccc2OCCn2c(C)nc3c(F)cc(C(F)F)c(C#N)c3c2=O)c2scc(C(=O)NS(C)(=O)=O)c2n1` [compound 566], the IC50 under setting [1] was less than 50 nM and the IC50 under setting [2] is 16.4 nM.

Consider `Cc1nc2cnc(N(C)C3CCN(CC(C)(F)F)CC3)c(C(N)=O)c2c(=O)n1CC#Cc1ccc(Cl)cc1-c1ccnc2c(C(=O)O)csc12` [compound 1961], for which the IC50 under setting [3] was 211 nM.

Consider `Cc1nc2cc(C(F)(F)F)cc(C#N)c2c(=O)n1CCOc1ccc(Cl)cc1-c1cc(C#N)nc2c(C(=O)O)csc12` [compound 446], for which the IC50 under setting [1] was 50 to 1000 nM.

Take `Cc1nc2cc(C(F)(F)F)c(OCC(F)(F)F)c(C#N)c2c(=O)n1CCOc1ccc(Cl)cc1-c1ccnc2c(C(=O)O)csc12` [compound 1153]: the IC50 was less than 50 nM under setting [1] and 38 nM under setting [2].

On to `Cc1nc2cnc(N3CC(N4CCC(F)(F)CC4)C3)c(C#N)c2c(=O)n1CCOc1ccc(Cl)cc1-c1ccnc2c(C(=O)O)csc12` [compound 1340], for which the IC50 under setting [3] is 44.2 nM.

Regarding `Cc1nc2cnc(N(C)C3CCN(CC(F)(F)Cl)CC3)c(C#N)c2c(=O)n1CCOc1ccc(Cl)cc1-c1ccnc2c(C(=O)O)csc12` [compound 1441], the IC50 under setting [3] was 29.8 nM.

For the molecule `N#Cc1cc(C(F)(F)F)cc2c(Cl)c(Cl)n(CCOc3ccc(Cl)cc3-c3ccnc4c(C(=O)O)csc34)c(=O)c12` [compound 1970], the IC50 under setting [3] is 67.2 nM.

On to `CCC(F)(CC)CN1CCN(c2ncc3nc(C)n(CCOc4ccc(Cl)cc4-c4ccnc5c(C(=O)O)csc45)c(=O)c3c2C#N)CC1` [compound 1469], for which the IC50 under setting [3] is 23 nM.

On to `Cc1cc(-c2cc(Cl)ccc2OCCn2c(C)nc3cnc(N4CCC(F)(F)CC4)c(C#N)c3c2=O)c2scc(C(=O)O)c2n1` [compound 1097], for which the IC50 is less than 50 nM under setting [1] and 38.8 nM under setting [2].

Consider `Cc1c(C(F)(F)F)cc2nc(C)n(CCOc3ccc(Cl)cc3-c3ccnc4c(C(=O)O)csc34)c(=O)c2c1C#N` [compound 415], for which the IC50 is less than 50 nM under setting [1] and 14.3 nM under setting [2].

Regarding `Cc1nc2cnc(C3CC3)c(C#N)c2c(=O)n1CCOc1ccc(Cl)cc1-c1cc(CF)nc2c(C(=O)O)csc12` [compound 917], the IC50 reads like this: under setting [1], less than 50 nM; under setting [2], 11 nM.
